Broadly, the EC50 is the midpoint of the concentration-response curve. A low value points to higher potency in that assay. A word on the Ki: it is a measure of affinity in units of concentration, obtained from inhibition or displacement. The term inhibition denotes the relative decrease from the control value, in per cent. The % Inhibition is the drop in the measured response relative to a control, in per cent.

Data on three compounds can be found in paper PMC8179138, “Ligand design by targeting a binding site water” (Chemical Science, 2020).

Read-outs that look alike come from different tables or passages of the source.

Data set [1] has as its target T1, hAR subtype A3 in HEK293 cells (Homo sapiens, UniProt P0DMS8).
T1 construct: expressed in transfected cells
T1 sequence (P0DMS8 1-318): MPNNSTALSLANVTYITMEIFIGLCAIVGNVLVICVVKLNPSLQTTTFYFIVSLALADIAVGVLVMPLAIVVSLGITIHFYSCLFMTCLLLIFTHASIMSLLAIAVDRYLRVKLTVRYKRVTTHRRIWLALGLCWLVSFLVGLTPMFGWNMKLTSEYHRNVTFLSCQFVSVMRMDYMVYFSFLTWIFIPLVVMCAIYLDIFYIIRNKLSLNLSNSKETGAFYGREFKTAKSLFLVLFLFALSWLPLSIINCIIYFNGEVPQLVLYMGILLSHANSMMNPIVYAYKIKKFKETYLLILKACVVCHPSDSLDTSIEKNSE
The experiment in a line: Functional cAMP assay, A3AR. The format is cell-based. In general terms: cAMP levels reflect the balance of adenylyl cyclase and phosphodiesterase activity.

Data set [2] deals with T2, hAR subtype A2B in HEK293 cells (Homo sapiens, UniProt P29275).
T2 construct: expressed in transfected cells
T2 sequence (P29275 1-332): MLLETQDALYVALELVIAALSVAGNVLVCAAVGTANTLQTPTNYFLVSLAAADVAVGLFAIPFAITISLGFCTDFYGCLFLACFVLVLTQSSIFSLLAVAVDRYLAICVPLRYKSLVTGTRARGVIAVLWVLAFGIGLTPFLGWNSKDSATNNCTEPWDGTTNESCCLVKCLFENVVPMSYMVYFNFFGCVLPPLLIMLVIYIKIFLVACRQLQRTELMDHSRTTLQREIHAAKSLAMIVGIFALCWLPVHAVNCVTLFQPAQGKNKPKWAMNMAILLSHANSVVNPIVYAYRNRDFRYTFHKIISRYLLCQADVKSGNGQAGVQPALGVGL
The experiment in a line: Functional cAMP assay, A2BAR. The format is cell-based.

In data set [3] the target is T3, human A2AAR (Homo sapiens, UniProt P29274). As to the kind of experiment: Radioligand binding assay, A2AAR. To be noted: for A2AAR activity class (Active/Inactive) in Fig. 2: summary of binding and functional data.
Protocol: (§1) using 8-[4-[[[[(2-aminoethyl)amino]carbonyl]methyl]oxy]phenyl]-1,3-dipropylxanthin e (XAC) at 10 µM for A1 and A2A and 100 µM for A2B and A3. Binding parameters were calculated using Prism 8 software (GraphPAD, San Diego, CA, USA). IC50 values obtained from competition curves were converted to Ki values using the Cheng–Prusoff equation23.
(§2) Data are express ed as mean ± standard error.
Data set [4] has as its target T4, human A2BAR (Homo sapiens, UniProt P29275).
T4 sequence (P29275 1-332): T2 sequence (P29275 1-332)
As to the kind of experiment: Radioligand binding assay, A2BAR. To be noted: read-out: % Inhibition at 10µM A2B.
Protocol: as §1, §2

In data set [5] the target is T5, hAR subtype A2A in HEK293 cells (Homo sapiens, UniProt P29274).
T5 construct: expressed in transfected cells
The experiment in a line: Functional cAMP assay, A2AAR. To be noted: for A2AAR agonist activity in words: Gs-mediated cAMP production; for Emax at 10 µM: HEK293, stimulation of cAMP production at 10 μM, n=3, read-out: Maximum efficacy A2A (% activation). The class given is cell-based.

Data set [6] has as its target T6, hAR subtype A1 in HEK293 cells (Homo sapiens, UniProt P30542).
T6 sequence (P30542 1-326): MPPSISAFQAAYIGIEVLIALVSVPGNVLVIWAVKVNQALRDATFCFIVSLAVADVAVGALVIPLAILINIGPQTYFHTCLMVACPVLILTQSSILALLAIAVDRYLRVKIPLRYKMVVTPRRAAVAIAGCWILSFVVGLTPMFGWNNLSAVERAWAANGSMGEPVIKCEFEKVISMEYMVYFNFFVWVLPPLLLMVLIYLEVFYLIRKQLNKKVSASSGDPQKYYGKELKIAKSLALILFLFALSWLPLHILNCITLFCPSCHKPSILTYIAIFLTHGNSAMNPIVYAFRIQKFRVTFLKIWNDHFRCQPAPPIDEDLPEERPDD
As to the kind of experiment: Functional cAMP assay, A1AR. The format is cell-based.

For data set [7], the target named is T7, human A3AR (Homo sapiens, UniProt P0DMS8).
T7 sequence (P0DMS8 1-318): T1 sequence (P0DMS8 1-318)
As to the kind of experiment: Radioligand binding assay, A3AR.
Protocol: as §1, §2

Data set [8] deals with adenosine deaminase. The experiment in a line: A2AAR activity in absence and presence of adenosine deaminase. The class given is in vitro ADME. As to conditions: concluded qualitatively from A2AAR activity without and with adenosine deaminase. The protocol: For compounds 3 and 4, both binding and functional assays at the A2AAR were carried out (Fig. 2). Experiments were also performed for the A1, A2B, and A3 subtypes (Fig. S1 and Table S1 ^†).

The target of data set [9] is T8, human A1AR (Homo sapiens, UniProt P30542).
T8 sequence (P30542 1-326): T6 sequence (P30542 1-326)
The experiment in a line: Radioligand binding assay, A1AR.
Protocol: as §1, §2

In data set [10] the target is T7, human A3AR. Details: expressed in transfected cells; method as in Rodriguez et al.3. As to conditions: ref Rodriguez et al.3; cited from earlier work.
In data set [11] the target is T3, human A2AAR. Details: expressed in transfected cells. To be noted: cited from earlier work.

T5 sequence (P29274 whole entry): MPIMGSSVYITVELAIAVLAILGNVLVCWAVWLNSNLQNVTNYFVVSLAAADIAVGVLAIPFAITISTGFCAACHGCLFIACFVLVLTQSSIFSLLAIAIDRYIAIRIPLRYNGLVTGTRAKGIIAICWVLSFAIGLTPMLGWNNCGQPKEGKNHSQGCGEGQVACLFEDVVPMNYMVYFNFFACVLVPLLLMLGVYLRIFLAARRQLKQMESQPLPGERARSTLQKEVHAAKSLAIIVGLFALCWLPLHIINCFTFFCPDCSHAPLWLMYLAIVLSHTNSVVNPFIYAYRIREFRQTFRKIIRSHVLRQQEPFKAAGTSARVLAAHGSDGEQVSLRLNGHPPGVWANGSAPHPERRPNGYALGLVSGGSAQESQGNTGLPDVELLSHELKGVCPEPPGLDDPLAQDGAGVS
T3 sequence (P29274 whole entry): as above

On to `Nc1ncc(CO)c2c1ncn2C1OC(CO)C(O)C1O` (stereo not drawn) [Compound 4], for which, in data set [1], the “activation of A3 subtype in words” value is reported as “activated”. The EC50 in data set [1] (cAMP, HEK293, n=3) came to 318 ± 66 nM; in [5] (cAMP production, HEK293, n=3) it was 732 nM; in data set [6] (cAMP, HEK293, n=3), 180 ± 38 nM. Also, the Emax is 97 ± 4% in data set [1] (cAMP, HEK293, n=3, read-out: Maximum efficacy A3); < 15% in data set [2] (cAMP, HEK293, n=3, read-out: Maximum efficacy A2B); 101 ± 3% in [6] (cAMP, HEK293, n=3, read-out: Maximum efficacy A1). In data set [2], the “activation of A2BAR in words” value is reported as “not”. The values for the Ki in data set [3], in data set [7] and in [9] were 103 nM, 280 ± 27 nM and 31 ± 4 nM, respectively. Besides, the “A2AAR activity class (Active/Inactive) in Fig. 2” value in data set [3] is recorded as “Active”. Also, the inhibition at 10 µM in [4] was found to be 29 ± 7%. In data set [5], the “A2AAR agonist activity in words” value was “full agonist”. The Emax at 10 µM in data set [5] turned out to be 99 ± 3%. Moreover, the “activation of A1 subtype in words” value in data set [6] is recorded as “activated”. Also, in [8], the “resistance to degradation by adenosine deaminase” value was “resistance”.
`Nc1nccc2c1ncn2[C@@H]1O[C@H](CO)[C@@H](O)[C@H]1O` [Compound 2, 3-deazaadenosine]: in [10], the “% Inhibition at 10µM A3” value was 53 ± 11%. The Emax at 10 µM in data set [5] came to 20 ± 4%. In addition, the “% Inhibition at 10µM A2A” value in [11] (10 µM, ref Rodriguez et al.3) is recorded as 24 ± 8%. Further, in [11] (summary of binding and functional data), the “A2AAR activity class (Active/Inactive) in Fig. 2” value is on record as “Inactive”. For the same compound, in data set [11] (very low affinity), the Ki was 39000 nM.
Take `Cc1cnc(N)c2ncn(C3OC(CO)C(O)C3O)c12` (stereo not drawn) [Compound 3]: the “% Inhibition at 10µM A2A” value in data set [3] (10 µM, radioligand binding, n=3) was “did not show significant displacement”. Further, the inhibition at 10 µM in [3] (read-out: % Inhibition at 10µM A2A) came to 13 ± 1%; in data set [4] it was 1 ± 1%; in data set [7] (read-out: % Inhibition at 10µM A3) it was 50 ± 2%; in data set [9] (read-out: % Inhibition at 10µM A1), 48 ± 17%. Further, the “A2AAR activity class (Active/Inactive) in Fig. 2” value in [3] is listed as “Inactive”. Also, in data set [5], the “A2AAR agonist activity in words” value is “inactive”. The Emax at 10 µM in data set [5] was 9 ± 1%.
